Measurements published in patent publication US20090131354A1, “miR-126 REGULATED GENES AND PATHWAYS AS TARGETS FOR THERAPEUTIC INTERVENTION” (priority 2007, published 2009).

System: A549 cells
Experiment: mRNA array gene expression analysis after transfection
Format: cell-based, human
Conditions: A549, 30 nM

Substance: hsa-miR-126 (UCGUACCGUGAGUAAUAAUGC; synthetic pre-miR form, further chemistry not given here) [Synthetic hsa-miR-126 (Pre-miR™-hsa-miR-126, Ambion cat. no. AM17100)]
- Δ log2 RPL14 mRNA: 0.7937 log2
- Δ log2 RPL38 mRNA: 1.084 log2
- Δ log2 RPS11 mRNA: 1.097 log2
- Δ log2 RRAGD mRNA: 1.193 log2
- Δ log2 SCARB2 mRNA: 0.9635 log2
- Δ log2 SCML1 mRNA: 0.9483 log2
- Δ log2 SDC1 mRNA: −0.9726 log2
- Δ log2 SDC4 mRNA: −1.316 log2
- Δ log2 SEC24A mRNA: 0.7724 log2
- Δ log2 SELENBP1 mRNA: 1.193 log2
- Δ log2 SEPP1 mRNA: 2.014 log2
- Δ log2 SEPT9 mRNA: −0.7282 log2
- Δ log2 SERPINA6 mRNA: 1.032 log2
- Δ log2 SERPINE1 mRNA: −1.338 log2
- Δ log2 SF3B4 mRNA: −1.044 log2
- Δ log2 SGPL1 mRNA: −1.59 log2
- Δ log2 SGPP1 mRNA: −1.773 log2
- Δ log2 SH3YL1 mRNA: 1.026 log2
- Δ log2 SLC2A3 mRNA: 0.7467 log2
- Δ log2 SLC3A2 mRNA: −1.221 log2
- Δ log2 SLC4A4 mRNA: −1.661 log2
- Δ log2 SLC4A7 mRNA: −0.9064 log2
- Δ log2 SLC7A5 mRNA: −1.958 log2
- Δ log2 SLC7A11 mRNA: −0.721 log2
- Δ log2 SLC26A2 mRNA: −1.615 log2
- Δ log2 SLC35D1 mRNA: −1.443 log2
- Δ log2 SLC39A6 mRNA: −2.468 log2
- Δ log2 SMARCA2 mRNA: 0.8119 log2
- Δ log2 SMTN mRNA: −1.071 log2
- Δ log2 SNRPD1 mRNA: −0.7027 log2
- Δ log2 SOCS2 mRNA: −0.7193 log2
- Δ log2 SORBS3 mRNA: −1.106 log2
- Δ log2 SPFH2 mRNA: 0.9346 log2
- Δ log2 SRD5A1 mRNA: −0.9713 log2
- Δ log2 STC1 mRNA: 0.8696 log2
- Δ log2 STK24 mRNA: −1.021 log2
- Δ log2 STX3A mRNA: 0.7983 log2
- Δ log2 SUMO2 mRNA: 0.9996 log2
- Δ log2 TAGLN mRNA: −0.9221 log2
- Δ log2 TARDBP mRNA: −1.05 log2
- Δ log2 TFG mRNA: 0.9981 log2
- Δ log2 TFPI mRNA: 1.003 log2
- Δ log2 TGFBR2 mRNA: 1.068 log2
- Δ log2 TGFBR3 mRNA: 1.082 log2
- Δ log2 THBS1 mRNA: −0.9922 log2
- Δ log2 TJP2 mRNA: 0.8301 log2
- Δ log2 TLR3 mRNA: 1.096 log2
- Δ log2 TM4SF20 mRNA: 0.9319 log2
- Δ log2 TNFAIP6 mRNA: −1.542 log2
- Δ log2 TNFRSFI2A mRNA: −1.07 log2
- Δ log2 TNFSF10 mRNA: 1.066 log2
- Δ log2 TNRC9 mRNA: 0.8141 log2
- Δ log2 TNS1 mRNA: 1.235 log2
- Δ log2 TP73L mRNA: 0.7602 log2
- Δ log2 TRA1 mRNA: 1.982 log2
- Δ log2 TRIM14 mRNA: −1.157 log2
- Δ log2 TRIM22 mRNA: 1.379 log2
- Δ log2 TSC mRNA: 1.372 log2
- Δ log2 TSPAN7 mRNA: 0.8049 log2
- Δ log2 TSPAN8 mRNA: 1.266 log2
- Δ log2 TTC3 mRNA: 0.7079 log2
- Δ log2 TUBB2 /// TUBB-PARALOG mRNA: −0.904 log2
- Δ log2 TXN mRNA: 1.543 log2
- Δ log2 TncRNA: 1.613 log2
- Δ log2 UAP1 mRNA: −1.613 log2
- Δ log2 UBE2L6 mRNA: 0.9119 log2
- Δ log2 UPK1B mRNA: −1.042 log2
- Δ log2 VDAC1 mRNA: −1.181 log2
- Δ log2 VDAC3 mRNA: 1.063 log2
- Δ log2 VIL2 mRNA: 0.7604 log2
- Δ log2 WDR1 mRNA: −0.8373 log2
- Δ log2 WDR41 mRNA: −1.49 log2
- Δ log2 WEE1 mRNA: 0.8892 log2
- Δ log2 WNT7B mRNA: −1.114 log2
- Δ log2 XM_371853 (gene symbol —) mRNA: 0.9326 log2
- Δ log2 XTP2 mRNA: 0.9083 log2
- Δ log2 YKT6 mRNA: −1.176 log2
- Δ log2 YOD1 mRNA: 0.869 log2
- Δ log2 YTHDF3 mRNA: −0.9397 log2
- Δ log2 ZNF467 mRNA: 1.211 log2
